Data taken from PubChem BioAssay (NCI).
Where “and” joins values, the source holds several entries; their conditions need not be identical. Identical values can stand only once.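 Step 1: Grow cells in 96-well plates. Step 2: Expose to compound for 48 hours at 5 concentrations. Step 3: Interpolate endpoints linearly; if unreached, use highest concentration. Abbreviation: GI50, concentration required for 50% inhibition of growth. Definition used: TGI = concentration required for complete inhibition of growth.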

How the values were obtained:
Assay in all cases: inhibition of tumour cell growth, NCI panel, 48 h
NCI-H460 lung = test system: NCI-H460 lung
RXF 393 renal = test system: RXF 393 renal
NCI-H23 lung = test system: NCI-H23 lung
MDA-MB-435 = test system: MDA-MB-435
SK-MEL-5 melanoma = test system: SK-MEL-5 melanoma
HCC-2998 colon = test system: HCC-2998 colon
HCT-15 colon = test system: HCT-15 colon
TK-10 renal = test system: TK-10 renal
M14 melanoma = test system: M14 melanoma
HT29 colon = test system: HT29 colon

Row | SMILES | TGI (NCI-H460 lung) | TGI (RXF 393 renal) | TGI (NCI-H23 lung) | TGI (MDA-MB-435) | TGI (SK-MEL-5 melanoma) | TGI (HCC-2998 colon) | TGI (HCT-15 colon) | TGI (TK-10 renal) | TGI (M14 melanoma) | TGI (HT29 colon) | GI50 (RXF 393 renal) | GI50 (MDA-MB-435) | GI50 (SK-MEL-5 melanoma) | GI50 (HCC-2998 colon) | GI50 (NCI-H460 lung) | GI50 (NCI-H23 lung) | GI50 (HCT-15 colon) | GI50 (HT29 colon) | GI50 (TK-10 renal) | GI50 (M14 melanoma)
1 | c1ccc(CSC(SCc2ccccc2)c2cccc3ccccc23)cc1 | > 10 µM | > 10 µM | > 10 µM | > 10 µM | > 10 µM | > 10 µM | > 10 µM | > 10 µM | > 10 µM | > 10 µM | – | – | – | – | – | – | – | – | – | –
2 | c1ccc(/C(=N\Nc2nc3ccccc3[nH]2)c2ccccn2)cc1 | 13.1 µM | 14.4 µM | 14.5 µM | 13.7 µM | 4.66 µM | 4.1 µM | 5.83 µM | 3.82 µM | 1.89 µM | 2.69 µM | – | – | – | – | – | – | – | – | – | –
3 | N#CC1(CCCI)CCCC1 | 25.9 µM | 23 µM | 24.7 µM | – | 25.5 µM | > 100 µM | > 100 µM | > 100 µM | 50.4 µM | 80.6 µM | – | – | – | – | – | – | – | – | – | –
4 | O=C(O)c1cc2ccccc2c(N=Nc2ccc(S(=O)(=O)Nc3ccccn3)cc2)c1O | > 100 µM | > 100 µM | – | > 100 µM | > 100 µM | > 100 µM | > 100 µM | > 100 µM | > 100 µM | > 100 µM | – | – | – | – | – | – | – | – | – | –
5 | Cc1[nH]c(C(=O)Nc2ccc(C(=O)NCCN)cc2OC(C)C)c(Cl)c1Cl | – | 3.36 µM | – | 3.08 µM | 3.2 µM | 3.48 µM | – | – | – | – | 1.71 µM | 1.66 µM | 1.78 µM | 1.82 µM | – | – | – | – | – | –
6 | Cc1csc2nc(-c3cccc([N+](=O)[O-])c3)c(/C=N/N=C(N)N)n12 | 9.61 µM | – | 3.49 µM | 3.03 µM | 2.74 µM | 0.861 µM | 3.71 µM | 3.17 µM | 3.1 µM | 3.27 µM | – | – | – | – | – | – | – | – | – | –
7 | O=C1Nc2cccc(Cl)c2/C1=C\c1cccnc1 | 36.5 µM | 7.48 µM | 15.8 µM | 19.8 µM | 27.4 µM | 7.86 µM | > 100 µM | 34.7 µM | 19.6 µM | > 100 µM | – | – | – | – | – | – | – | – | – | –
8 | C[n+]1c2ccccc2c(N=[N+]=[N-])c2ccccc21 | > 10 µM | > 10 µM | > 10 µM | > 10 µM | > 10 µM | > 10 µM | > 10 µM | > 10 µM | > 10 µM | > 10 µM | – | – | – | – | – | – | – | – | – | –
9 | CCCCCCCCCCCCc1ccc(S(=O)(=O)O)cc1.[Cu+2] | > 100 µM | > 100 µM | > 100 µM | > 100 µM | > 100 µM | > 100 µM | > 100 µM | > 100 µM | > 100 µM | > 100 µM | – | – | – | – | – | – | – | – | – | –
10 | CC[C@@]1(O)CC(OC2CC(N3CCOCC3)C(O)C(C)O2)c2c(O)c3c(c(O)c2[C@H]1O)C(=O)c1cccc(O)c1C3=O (stereo partly drawn) | 0.554 µM and 0.113 µM | 0.715 µM and 1.15 µM | 1.95 µM and 1.09 µM | 1.14 µM | 0.451 µM and 0.181 µM | 0.904 µM and 0.916 µM | 1.44 µM and 3.18 µM | 1.7 µM | 1.51 µM | 3.23 µM and 2.33 µM | – | – | 0.0175 µM | 0.13 µM | 0.052 nM | 0.101 µM | 0.0358 µM | 0.0228 µM | – | –
11 | O=C(CSCC(=O)N/N=C\c1ccc(F)cc1F)N/N=C\c1ccc(F)cc1F | > 100 µM | > 100 µM | > 100 µM | > 100 µM | > 100 µM | > 100 µM | > 100 µM | > 100 µM | > 100 µM | > 100 µM | – | – | – | – | – | – | – | – | – | –
12 | C[C@]12CC[C@H]3[C@@H](CC=C4C[C@@H](O)CC[C@@]43C)[C@@H]1C/C(=C\c1ccncc1)[C@@H]2O | 42.2 µM | 38 µM | 33.6 µM | 47.9 µM | 21.1 µM | > 100 µM | 58.9 µM | > 100 µM | 40.6 µM | > 100 µM | – | – | – | – | – | – | – | – | – | –
13 | N#Cc1c(-c2ccc([N+](=O)[O-])cc2)c2c([nH]c1=O)-c1ccccc1CCC2 | > 100 µM | 73.8 µM | > 100 µM | > 100 µM | > 100 µM | 71.1 µM | > 100 µM | > 100 µM | > 100 µM | > 100 µM | – | – | – | – | – | – | – | – | – | –
14 | CC(C)CCN(CCC(C)C)CC(=O)Nc1ccc(S(=O)(=O)c2ccc(NC(=O)CN(CCC(C)C)CCC(C)C)cc2)cc1 | 6.1 µM | 5.87 µM | 4.84 µM | 6.07 µM | 3.05 µM | 9.71 µM | 3.89 µM | 25.5 µM | 4.01 µM | 3.29 µM | 1.79 µM | 2.15 µM | 1.53 µM | 3.2 µM | 2070 nM | 1.81 µM | 1.29 µM | 1.58 µM | 12.2 µM | 1.58 µM
15 | O=C1OC(c2ccc(O)cc2)(c2ccc(O)cc2)c2ccc(Cl)c3cccc1c23 (tested in a mixture with another compound) | 23.7 µM | 27.4 µM | 31 µM | 18.9 µM | 29.3 µM | – | 22.8 µM | 52.6 µM | 19.8 µM | 23.9 µM | – | – | – | – | – | – | – | – | – | –
16 | COc1ccccc1C#C/C=C\C#Cc1ccccc1C#N | > 100 µM | 83.5 µM | 25 µM | 14.5 µM | 5.95 µM | 47.4 µM | > 100 µM | > 100 µM | 46.5 µM | > 100 µM | – | – | – | – | – | – | – | – | – | –
17 | C[N+]1(C(CO)Cc2c[nH]c3ccccc23)Cc2ccccc2C1 (stereo not drawn) | > 100 µM | > 100 µM | > 100 µM | > 100 µM | > 100 µM | > 100 µM | > 100 µM | > 100 µM | > 100 µM | > 100 µM | – | – | – | – | – | – | – | – | – | –
18 | Cc1ncc(C(=O)Nc2ccc(CN3CCN(C)CC3)c(C(F)(F)F)c2)cc1C#Cc1cnc(N)c2ccc(C#N)cc12 | – | – | 3.28 µM | – | – | 24.7 µM | 1.5 µM | 2.82 µM | – | – | – | – | – | 2.29 µM | – | 0.0959 µM | 0.0485 µM | – | 0.0572 µM | –
